Reference: ChEMBL document CHEMBL5352385, “Marine natural products and their synthetic analogs as promising antibiofilm agents for antibiotics discovery and development” (Eur J Med Chem, 2022)
*1 amine or outer side, *2 acyl side, *3 side chain or, on linkers, in order; H or OH if unused. Where a SMILES comes first, the peptide text is derived from it. [ ]: non-standard residue; d: D form. X1 = CCCCCCCCCCCCCC(N[*:1])C(=O)[*:2]

How the values were obtained:
[1] = tested on: Vibrio anguillarum; experiment: Antibiofilm activity against Vibrio anguillarum at 300 ug/ml relative to control; assay type: functional; conditions: dose 300 µg/ml
[2] = tested on: Pseudomonas aeruginosa; experiment: Antibiofilm activity against Pseudomonas aeruginosa at 300 ug/ml relative to control; assay type: functional; conditions: dose 300 µg/ml
[3] = tested on: Bacillus subtilis; experiment: Antibiofilm activity against Bacillus subtilis at 300 ug/ml relative to control; assay type: functional; conditions: dose 300 µg/ml
[4] = tested on: Bacillus sp.; experiment: Antibiofilm activity against Bacillus sp. 176 at 300 ug/ml relative to control; assay type: functional; conditions: dose 300 µg/ml
[5] = tested on: Staphylococcus aureus; experiment: Antibiofilm activity against methicillin-sensitive Staphylococcus aureus ATCC 35556 incubated for 24 hrs; assay type: functional
[6] = tested on: Staphylococcus aureus; experiment: Antibiofilm activity against methicillin-resistant Staphylococcus aureus ATCC 43866 incubated for 24 hrs; assay type: functional
[7] = tested on: Staphylococcus epidermidis; experiment: Antibiofilm activity against […] incubated for 24 hrs; assay type: functional
[8] = tested on: Escherichia coli; experiment: Antibiofilm activity against Escherichia coli at 31.3 ug/ml relative to control; assay type: functional; conditions: dose 31.3 µg/ml
[9] = tested on: Staphylococcus aureus; experiment: Antibiofilm activity against Staphylococcus aureus ATCC 29213 at 0.5 to 4 ug/ml relative to control; assay type: functional; conditions: dose 0.5-4 µg/ml; at 0.5 to 4 µg/mL
[10] = tested on: Staphylococcus epidermidis; experiment: Antibiofilm activity against Staphylococcus epidermidis; assay type: functional
[11] = tested on: Pseudomonas aeruginosa; experiment: Antibiofilm activity against Pseudomonas aeruginosa PA01 at 128 ug/ml relative to control; assay type: functional; conditions: dose 128 µg/ml
[12] = tested on: Pseudomonas aeruginosa; experiment: Antibiofilm activity against Pseudomonas aeruginosa PAO1 at 500 ug/ml incubated for 24 hrs by crystal violet staining based analysis relative to control; assay type: functional; conditions: dose 500 µg/ml
[13] = tested on: Escherichia coli; experiment: Antibiofilm activity against Escherichia coli assessed as inhibition of biofilm formation; assay type: functional
[14] = tested on: Pseudomonas aeruginosa; experiment: Antibiofilm activity against Pseudomonas aeruginosa assessed as inhibition of biofilm formation at 100 to 200 ug/ml relative to control; assay type: functional; set-up: scale not given: the % may be the effect or the level left; conditions: dose 100-200 µg/ml; at 100 to 200 µg/mL
[15] = tested on: Staphylococcus aureus; experiment: Antibiofilm activity against Staphylococcus aureus ATCC 6538 at 12.5 ug/ml relative to control; assay type: functional; conditions: dose 12.5 µg/ml
[16] = tested on: Streptococcus mutans; experiment: Antibiofilm activity against Streptococcus mutans at 5 ug/ml relative to control; assay type: functional; conditions: dose 5 µg/ml
[17] = tested on: Pseudomonas aeruginosa; experiment: Antibiofilm activity against Pseudomonas aeruginosa PA01 assessed as inhibition of biofilm formation at 800 ug/ml relative to control; assay type: functional; set-up: scale not given: the % may be the effect or the level left; conditions: dose 800 µg/ml
[18] = Inhibition of quorum-sensing system in Staphylococcus epidermidis assessed as inhibition of AI-2 at 60 ug/ml by bioluminescence assay relative to control; conditions: dose 60.0 µg/ml
[19] = tested on: Candida albicans; experiment: Antibiofilm activity against Candida albicans assessed as reduction in biofilm formation at >200 ug/ml measured after 48 hrs by crystal violet staining based analysis relative to control; assay type: functional; set-up: scale not given: the % may be the effect or the level left; conditions: dose > 200 µg/ml
[20] = tested on: Staphylococcus aureus; experiment: Antibiofilm activity against methicillin-resistant Staphylococcus aureus CH 10850 at 33.2 ug/ml relative to control; assay type: functional; conditions: dose 33.2 µg/ml
[21] = tested on: Candida albicans; experiment: Antibiofilm activity against Candida albicans assessed as reduction in biofilm formation at 100 ug/ml measured after 48 hrs by crystal violet staining based analysis relative to control; assay type: functional; set-up: scale not given: the % may be the effect or the level left; conditions: dose 100 µg/ml
[22] = tested on: Bacillus pumilus; experiment: Antibiofilm activity against Bacillus pumilus TiO1 assessed as inhibition of biofilm formation at 12.5 ug/ml by microdilution plate method relative to control; assay type: functional; set-up: scale not given: the % may be the effect or the level left; conditions: dose 12.5 µg/ml
[23] = tested on: Pseudomonas aeruginosa; experiment: Antibiofilm activity against Pseudomonas aeruginosa PA01 assessed as inhibition of biofilm formation at 25 ug/ml by microdilution plate method relative to control; assay type: functional; set-up: scale not given: the % may be the effect or the level left; conditions: dose 25 µg/ml
[24] = tested on: Candida albicans; experiment: Antibiofilm activity against Candida albicans BH assessed as inhibition of biofilm formation at 25 ug/ml by microdilution plate method relative to control; assay type: functional; set-up: scale not given: the % may be the effect or the level left; conditions: dose 25 µg/ml
[25] = tested on: Pseudomonas aeruginosa; experiment: Antibiofilm activity against Pseudomonas aeruginosa PA01 assessed as inhibition of biofilm formation at 100 ug/ml by microdilution plate method relative to control; assay type: functional; set-up: scale not given: the % may be the effect or the level left; conditions: dose 100 µg/ml
[26] = tested on: Staphylococcus aureus; experiment: Antibiofilm activity against Staphylococcus aureus ATCC 6538 at 6.25 ug/ml relative to control; assay type: functional; conditions: dose 6.25 µg/ml
[27] = tested on: Streptococcus mutans; experiment: Antibiofilm activity against clinical isolates Streptococcus mutans assessed as inhibition of biofilm formation at 3.0 ug/ml relative to control; assay type: functional; set-up: scale not given: the % may be the effect or the level left; conditions: dose 3 µg/ml
[28] = tested on: Streptococcus mutans; experiment: Antibiofilm activity against Streptococcus mutans UA159 assessed as inhibition of biofilm formation at 3.0 ug/ml relative to control; assay type: functional; set-up: scale not given: the % may be the effect or the level left; conditions: dose 3 µg/ml

SMILES: CCCCCCCCCCCCCC1NC(=O)C(C(C)CC)NC(=O)C(CC(C)C)NC(=O)C(CC(=O)OC)NC(=O)C(CC(C)C)NC(=O)C(CC(C)C)NC(=O)C(CC(C)C)NC(=O)C(CCC(=O)OC)NC1=O (stereo not drawn) (cyclo([X1]E(OMe)LLLD(OMe)LI); configuration not given here)
- Activity [1]: >50%
- Activity [2]: >50%
- Activity [3]: >50%
- Activity [4]: >50%

SMILES: Cn1c(-c2nnc(-c3ccc(Cl)cc3Cl)o2)cc(Br)c1Br
- MBIC [5]: 0.39 µg/mL
- MBIC [6]: 0.78 µg/mL
- MBIC [7]: 3.125 µg/mL

SMILES: NC1=N[C@]23CCCN2C(=O)c2cc(Br)c(Br)n2[C@@H]3N1 [DIBROMOPHAKELLIN]
- Activity [8]: 50%

SMILES: COC(=O)CCN(CCCCCCCCCCCOCCc1ccc[n+](Cc2ccccc2)c1)C(=O)OC(C)(C)C.[Cl-]
- Activity [9]: 25%

SMILES: O=C1Nc2ccc(Br)cc2C1(c1c[nH]c2ccccc12)c1c[nH]c2ccccc12
- MBIC [10]: 5 µM
- Activity [11]: 49.32%

SMILES: O=C1N[C@@H](Cc2ccc(O)cc2)C(=O)N2CCC[C@@H]12
- Activity [12]: 48%

SMILES: CCCCCCCCC1C=CC(=O)O1 (stereo not drawn)
- MBIC [13]: 50 µg/mL
- Activity [14]: 100%

SMILES: Cc1cc(O)c2c(c1)C(=O)c1cc(O)cc(O)c1C2=O [EMODIN]
- Activity [15]: >50%
- Activity [16]: 90%

SMILES: CC(=O)NCCc1ccc(O)cc1
- Activity [17]: 28%

SMILES: CCCCCCCCCCCCCCC=O
- inhibition [18]: > 50%

SMILES: C/C=C/CCCC(C)/C(O)=C1\C(=O)[C@H](C(C)O)N(C)C1=O (stereo partly drawn)
- Activity [19]: 80%

SMILES: CC(=O)O[C@@H]1O[C@H]2OC(=O)C3=C(C)[C@@](C)([C@@]4(C)CCCC(C)(C)C4)CC[C@@H]1[C@H]32
- Activity [20]: 50%

SMILES: C/C=C1\C(=O)/C(=C(/O)C(C)CCCCCC)C(=O)N1C (stereo not drawn) [PENICILLENOL B2]
- Activity [21]: 80%

SMILES: CCCCCCCCCCCCCCCC(=O)OC[C@H]1O[C@H](O)[C@H](O)[C@@H](O)[C@@H]1O
- Activity [22]: >50%
- Activity [23]: >50%
- Activity [24]: >50%
- Activity [25]: >70%

SMILES: COC(=O)[C@@]12Oc3ccc(-c4ccc5c(c4O)C(=O)C4=C(O)C[C@H](C)[C@@H](O)[C@]4(C(=O)OC)O5)c(O)c3C(=O)C1=C(O)C[C@H](C)[C@H]2O
- Activity [26]: 97%

SMILES: C[C@H](CC[C@H](C)C(C)(C)C)[C@H]1CC[C@H]2C3C[C@H](OS(=O)(=O)[O-])[C@H]4C[C@H](OS(=O)(=O)[O-])[C@@H](OS(=O)(=O)[O-])C[C@]4(C)[C@H]3CC[C@]12C.[Na+].[Na+].[Na+] (stereo partly drawn)
- Activity [27]: 85.2%
- Activity [28]: 99.5%
